In one data set the test system is KRAS p.G12C tumors. Put plainly: Preclinical anti-tumor efficacy. The class given is in vivo. The note with it: immune-competent mice. The source says:
KRAS is the most frequently mutated oncogene in human cancer and encodes a key signaling protein in tumors.

The nature of data set [1]: Phase 1 safety and treatment exposure, all enrolled patients. The class given is in vivo. An excerpt: A subject undergoing a therapy is monitored for adverse events (AE) during the course of the therapy. A treatment related AE is an AE that is related to the treatment drug. A treatment emergent AE is one that a subject develops undergoing the treatment that was not present prior to start of therapy. In some cases, the treatment emergent AE is not or suspected not to be related to the treatment itself. AEs are characterized as one of five grades—grade 1 is a mile AE; grade 2 is a moderate AE; grade 3 is a severe AE; grade 4 is a life-threatening or disabling AE; and grade 5 is death related to AE.
The grading of AEs is based on the guidelines provided in the CTCAE version 5.0. AEs for DLT assessment:
Hematological toxicity: Febrile neutropenia; Neutropenic infection; Grade 4 neutropenia; Grade≥3 thrombocytopenia for>7 days; Grade 3 thrombocytopenia with grade≥2 bleeding; Grade 4 thrombocytopenia; Grade 4 Anemia Non-hematological toxicity Grade≥4, vomiting or diarrhea; Grade 3 diarrhea or grade 3 vomiting lasting more than 3 days despite optimal medical support; Grade≥3 nausea for 3 days or more despite optimal medical support; Any other grade≥3 AE

The test system of data set [2] is other tumor types (appendiceal cancer, unknown primary cancer). Put plainly: Phase 1 tumor response by RECIST 1.1, patients with other tumor types. The class given is in vivo, human. The note with it: 2 evaluable patients with appendiceal cancer. An excerpt:
A complete response (CR) is disappearance of all target lesions and any pathological lymph nodes have a reduction in short axis to less than 10 mm. A partial response (PR) is at least a 30% decrease in the sum of diameters of target lesions, taking as reference the baseline sum diameters. A progressive disease is at least a 20% increase in the sum of diameters of target lesions, taking as reference the smallest sum on study (including the baseline sum if that is the smallest on study), and there must be an absolute increase of at least 5 mm in addition to the relative increase of 20%. A stable disease is neither sufficient shrinkage to qualify for PR nor sufficient increase to qualify for PD. […] The tumor size can be measured by radiographic scan.
FIG. 2. […] Target lesions are measurable lesions defined by RECIST 1.1. Non-measurable lesions, as defined by RECIST 1.1, are considered non-target lesions. A PR is defined as at least a 30% decrease in the sum of the diameters of target lesions using the baseline sum of diameters as a reference. […]
As of the data cutoff of Jul. […] The tumor types of two patients were re-classified after the cutoff: 1 patient who was initially recorded as having NSCLC had unknown primary cancer, and 1 patient who was initially recorded as having other tumor types had NSCLC. […]
Tumor response was evaluated using RECIST 1.1. […]

Data set [3] in a line: Phase 1 pharmacokinetics of Compound A at 960 mg once daily. The class given is in vivo, human. The note with it: patients.
The mark [4] stands for this setting: 76 enrolled patients, all doses.

The values below come from patent US20230028414A1, “DOSING REGIMEN OF KRAS G12C INHIBITOR” (AMGEN INC., priority 2019, published 2023).

`C=CC(=O)N1CCN(c2nc(=O)n(-c3c(C)ccnc3C(C)C)c3nc(-c4c(O)cccc4F)c(F)cc23)[C@@H](C)C1` [Compound A, 4-((S)-4-acryloyl-2-methylpiperazin-1-yl)-6-fluoro-7-(2-fluoro-6-hydroxyphenyl)-1-(2-isopropyl-4-methylpyridin-3-yl)pyrido[2,3-d]pyrimidin-2(1H)-one]: the “anti-tumor effect in combination with immune checkpoint inhibition” value in the data set with KRAS p.G12C tumors is on record as “durable cures”. In addition, the “deaths related to treatment” value in data set [1] (7 deaths among 76 enrolled patients) was “none”. Also, in data set [1] (setting [4]), the “patients with treatment-related grade 3 AEs” value was 7 patients and the “patients with treatment-related grade 3 AEs, percent” value worked out at 9.2%. In data set [1] (consistent across all doses), the tolerability result is listed as “well tolerated with mild treatment-related toxicities”. Besides, the “treatment-related AEs higher than grade 3 or cumulative toxicities” value in data set [1] (extended treatment, all doses) is on record as “no treatment-related AEs higher than grade 3 or cumulative toxicities were observed”. Moreover, the tumor response result in data set [2] is “PR (unconfirmed) and SD”. In addition, in data set [3], the “24-hour area under the curve” value came out at 65300 ng·h/mL and the “time of peak exposure after administration” value is recorded as “around 2 hours”.
